Values of other authors, collected in patent US20090298951A1, “Nontoxic Biocidal Composition And Method Thereof” (priority 2008, published 2009).

Conditions: 20° C.

C/C=C/C=C/C(=O)[O-].[K+] [potassium sorbate, potassium (E,E)-hexa-2,4-dienoate]
soluble in water: 58.2%
